According to US12590092B2, “Antiviral agents and uses thereof” (GRIFFITH UNIVERSITY, priority 2021, dated 2026):
Read-outs that look alike come from different tables or passages of the source.

Columns and labels:
[1] = molecular target: hPIV-1 C35 HN (neuraminidase function) (Human parainfluenza 1 virus, UniProt P16071); assay: Neuraminidase inhibition assay (MUN), hPIV-1 C35; assay type: biochemical, hPIV-1 (strain C-35)
[2] = molecular target: hPIV-3 C243 HN (haemagglutination function) (UniProt P08492, species not given/STRAIN_C243); assay: Haemagglutination inhibition assay, hPIV-3 C243; assay type: biochemical, hPIV-3 (strain C-243); settings: 1% human red blood cells
[3] = molecular target: hPIV-3 CI002 HN (neuraminidase function) (UniProt P08492, species not given/STRAIN_CI002); assay: Neuraminidase inhibition assay (MUN), hPIV-3 CI002; assay type: biochemical, hPIV-3 (strain CI002, clinical isolate); settings: pH 4.6
[4] = molecular target: hPIV-3 C243 HN (neuraminidase function) (UniProt P08492, species not given/STRAIN_C243); assay: Neuraminidase inhibition assay (MUN), hPIV-3 C243; assay type: biochemical, hPIV-3 (strain C-243); settings: pH 4.6
hPIV-3 CI002 = assay: In situ ELISA virus growth inhibition, hPIV-3 CI002; assay type: cell-based; settings: Human respirovirus 3, in Macaca mulatta, LLC-MK2 cells, 36-40 h, read-out: Viral Growth IC50 (converted)
hPIV-3 C243 = assay: In situ ELISA virus growth inhibition, hPIV-3 C243; assay type: cell-based, hPIV-3 (strain C243) in LLC-MK2 cells (Rhesus monkey kidney); settings: read-out: Viral Growth IC50
[5] = molecular target: hPIV-3 CI002 HN (haemagglutination function) (UniProt P08492, species not given/STRAIN_CI002); assay: Haemagglutination inhibition assay, hPIV-3 CI002; assay type: biochemical, hPIV-3 (strain CI002, clinical isolate); settings: 1% human red blood cells
[6] = molecular target: hPIV-1 C35 HN (haemagglutination function) (Human parainfluenza 1 virus, UniProt P16071); assay: Haemagglutination inhibition assay, hPIV-1 C35; assay type: biochemical, hPIV-1 (strain C-35)
[7] = Human respirovirus 3, in Macaca mulatta, hPIV-3 C243, LLC-MK2 cells, in situ ELISA, 36-40 h
[8] = Human respirovirus 3, LLC-MK2, in Macaca mulatta

Chain of hPIV-3 CI002 HN (neuraminidase function) (P08492 whole entry, change not shown): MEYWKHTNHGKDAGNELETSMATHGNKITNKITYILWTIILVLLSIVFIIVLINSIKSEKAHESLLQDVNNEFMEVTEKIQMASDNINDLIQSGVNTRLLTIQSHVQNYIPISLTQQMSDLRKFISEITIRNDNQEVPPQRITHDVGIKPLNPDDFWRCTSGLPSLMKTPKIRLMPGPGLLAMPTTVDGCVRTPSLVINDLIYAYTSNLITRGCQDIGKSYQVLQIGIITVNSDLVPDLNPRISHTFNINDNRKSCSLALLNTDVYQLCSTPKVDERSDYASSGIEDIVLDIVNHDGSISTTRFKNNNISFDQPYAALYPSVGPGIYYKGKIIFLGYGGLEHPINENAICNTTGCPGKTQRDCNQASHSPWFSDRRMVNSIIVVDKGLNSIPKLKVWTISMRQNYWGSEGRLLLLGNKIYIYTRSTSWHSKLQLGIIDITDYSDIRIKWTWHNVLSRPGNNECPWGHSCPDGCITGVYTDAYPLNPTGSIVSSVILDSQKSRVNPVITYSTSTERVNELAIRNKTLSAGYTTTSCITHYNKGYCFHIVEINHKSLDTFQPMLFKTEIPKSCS
Chain of hPIV-3 C243 HN (neuraminidase function) (P08492 whole entry, change not shown): as above
Chain of hPIV-3 C243 HN (haemagglutination function) (P08492 whole entry, change not shown): as above
Chain of hPIV-3 CI002 HN (haemagglutination function) (P08492 whole entry, change not shown): as above
Chain of hPIV-1 C35 HN (haemagglutination function) (P16071 whole entry): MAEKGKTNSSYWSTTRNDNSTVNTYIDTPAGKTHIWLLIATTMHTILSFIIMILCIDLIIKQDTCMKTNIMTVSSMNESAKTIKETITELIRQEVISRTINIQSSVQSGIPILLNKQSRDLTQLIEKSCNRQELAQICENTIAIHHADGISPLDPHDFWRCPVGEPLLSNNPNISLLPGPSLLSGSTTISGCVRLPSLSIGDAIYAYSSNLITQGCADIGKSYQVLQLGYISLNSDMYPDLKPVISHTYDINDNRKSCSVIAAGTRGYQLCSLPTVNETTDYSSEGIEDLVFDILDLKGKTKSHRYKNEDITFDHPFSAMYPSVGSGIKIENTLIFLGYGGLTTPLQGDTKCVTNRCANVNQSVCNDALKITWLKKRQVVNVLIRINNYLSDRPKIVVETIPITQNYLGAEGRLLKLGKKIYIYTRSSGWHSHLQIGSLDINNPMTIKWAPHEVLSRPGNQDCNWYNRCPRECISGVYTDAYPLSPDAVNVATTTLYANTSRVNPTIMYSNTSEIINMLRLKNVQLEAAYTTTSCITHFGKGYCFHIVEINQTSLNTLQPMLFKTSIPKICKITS
Chain of hPIV-1 C35 HN (neuraminidase function) (P16071 whole entry): as above

In the case of `CC(C)C(=O)N[C@H]1[C@H]([C@H](O)[C@H](O)CO)OC(C(=O)O)=C[C@@H]1n1nnc2ccc3[nH]ccc3c21` (single isomer, unassigned) [IE1963-113a], the IC50 [1] is reported as 6.33 µM, the IC50 [2] is reported as 36.7 µM and the IC50 [3] is reported as 34.9 µM. It also gave an IC50 [4] of 17 ± 0.764 µM, an IC50 (hPIV-3 CI002) of 42.6 µM and an IC50 (hPIV-3 C243; [7]) of 111 ± 9.29 µM.
With `CC(C)C(=O)N[C@H]1[C@H]([C@H](O)[C@H](O)CO)OC(C(=O)O)=C[C@@H]1n1nnc2c3cc[nH]c3ccc21` (single isomer, unassigned) [IE1963-113b] the IC50 [1] was 8.4 µM, the IC50 [2] was 3 µM and the IC50 [3] was 17.1 µM. The IC50 [4] was 5.14 ± 0.777 µM, the IC50 (hPIV-3 CI002) was 8.7 µM and the IC50 (hPIV-3 C243; [7]) was 24.4 ± 3.35 µM.
`O=C(O)C1=C[C@H](n2cc3ccncc3n2)[C@@H](NC(=O)C(F)(F)F)[C@H]([C@H](O)[C@H](O)CO)O1` [JC2001-48, 2,6-Anhydro-3,4,5-trideoxy-5-(2,2,2-trifluoroacetamido)-4-(2H-pyrazolo[3,4-c]pyridin-2-yl)-D-glycero-D-galacto-non-2-enonic Acid] showed an IC50 [5] of 4.94 µM, an IC50 [1] of 1.71 µM and an IC50 [2] of 13.1 µM. For the same compound, the IC50 [3] was 29.2 µM, the IC50 [6] was 0.27 µM and the IC50 [4] was 21.5 µM. It also gave an IC50 (hPIV-3 CI002) of 8.48 µM and an IC50 (hPIV-3 C243; [8]) of 54.5 ± 16.1 µM.
Work on `O=C(O)C1=C[C@H](n2cc3ncccc3n2)[C@@H](NC(=O)C(F)(F)F)[C@H]([C@H](O)[C@H](O)CO)O1` [JC2001-49, 2,6-Anhydro-3,4,5-trideoxy-5-(2,2,2-trifluoroacetamido)-4-(2H-pyrazolo[4,3-b]pyridin-2-yl)-D-glycero-D-galacto-non-2-enonic Acid] yielded an IC50 [5] of 4.94 µM, an IC50 [1] of 23.2 µM and an IC50 [2] of 13.1 µM. The IC50 [3] was 15.1 µM, the IC50 [6] was 14.8 µM and the IC50 [4] was 8.33 ± 1.24 µM. For the same compound, the IC50 (hPIV-3 CI002) was 11.5 µM and the IC50 (hPIV-3 C243; [8]) was 26.9 µM.
`CC(C)C(=O)N[C@H]1[C@H]([C@H](O)[C@H](O)CO)OC(C(=O)O)=C[C@@H]1n1cc2cc(F)sc2c1C#N` [RE1993-40] was tested, and the IC50 [5] was 0.82 µM, the IC50 [1] was 5.41 µM and the IC50 [2] was 0.735 ± 0.259 µM. It also gave an IC50 [3] of 2.71 µM, an IC50 [6] of 22.2 µM and an IC50 [4] of 1.14 ± 0.021 µM. The IC50 (hPIV-3 CI002) was 3.96 µM and the IC50 (hPIV-3 C243; [7]) was 3.22 ± 0.726 µM.
`O=C(O)C1=C[C@H](n2cc3ccc4cccnc4c3n2)[C@@H](NC(=O)C(F)(F)F)[C@H]([C@H](O)[C@H](O)CO)O1` [RP1967-89, 2,6-Anhydro-3,4,5-trideoxy-5-(2,2,2-trifluoroacetamida)-4-(2H-pyrazolo[4,3-h]quinolin-2-yl)-D-glycero-D-galacto-non-2-enonic Acid] gave an IC50 [5] of 4.94 µM, an IC50 [1] of 88.9 µM and an IC50 [2] of 3 µM. It also gave an IC50 [3] of 19.9 µM, an IC50 [6] of over 200 µM and an IC50 [4] of 5.52 ± 0.983 µM. The IC50 (hPIV-3 CI002) was 5 µM and the IC50 (hPIV-3 C243; [8]) was 9.67 µM.
